US20160113921A1, “COMBINATION THERAPY COMPRISING OXAZOLIDINONE-QUINOLONES FOR USE IN TREATING BACTERIAL INFECTIONS” (MORPHOCHEM AKTIENGESELLSCHAFT FÜR KOMBINATORISCHE CHEMIE, priority 2013, published 2016)
Like-named read-outs stand apart in the source and are kept apart here.

Columns and labels:
Format in all cases: cell-based
E. cloacae ATCC 13047 [1] = test: MIC, broth microdilution (CLSI), CAMHB; conditions: monosubstance; Ecl ATCC13047
Method: (§1) MIC-testing was done immediately after preparation of the dilutions. All tests were done in duplicate and repeated once on a separate occasion.
(§2) 1 mL of the bacterial suspension was transferred into a tube containing 10 mL CAMHB and was vortexed thoroughly. (S. pneumoniae 1 mL in 10 mL CAMHB+5% lysed horse blood). Columns 1-15 of the 96-well plate were inoculated with 5 μL of this suspension (1-15=antibacterial solution, 16=sterile medium without test item).
(§3) Turbidity was read visually with a mirror.

[2] = test system: E. cloacae NRZ-00239 (VIM-1); test: MIC, broth microdilution (CLSI), CAMHB; conditions: monosubstance; Ecl NRZ00239
Method: as §1, §2, §3

E. coli ATCC 25922 [3] = test: MIC, broth microdilution (CLSI), CAMHB; conditions: monosubstance; Ec ATCC25922
Method: as §1, §2, §3

[4] = test system: E. coli GNS-2601 (ESBL CTX-M-15); test: MIC, broth microdilution (CLSI), CAMHB; conditions: monosubstance; Ec GNS2601
Method: as §1, §2, §3

[5] = test system: E. coli NRZ-00302 (metallo β-lactamase NDM-1); test: MIC, broth microdilution (CLSI), CAMHB; conditions: monosubstance; Ec NRZ00302
Method: as §1, §2, §3

[6] = test system: E. coli NRZ-00401 (metallo β-lactamase VIM-1); test: MIC, broth microdilution (CLSI), CAMHB; conditions: monosubstance; Ec NRZ00401
Method: as §1, §2, §3

K. pneumoniae ATCC 13883 = test: MIC, broth microdilution (CLSI), CAMHB; conditions: monosubstance; Kp ATCC13883
Method: as §1, §2, §3

[7] = test system: K. pneumoniae NRZ-00002 (OXA-48); test: MIC, broth microdilution (CLSI), CAMHB; conditions: monosubstance; Kp NRZ00002
Method: as §1, §2, §3

[8] = test system: K. pneumoniae NRZ-00103 (KPC-2); test: MIC, broth microdilution (CLSI), CAMHB; conditions: monosubstance; Kp NRZ00103
Method: as §1, §2, §3

[9] = test system: K. pneumoniae NRZ-00535 (VIM-1); test: MIC, broth microdilution (CLSI), CAMHB; conditions: monosubstance; Kp NRZ00535
Method: as §1, §2, §3

P. aeruginosa ATCC 10145 = test: MIC, broth microdilution (CLSI), CAMHB; conditions: monosubstance; Pa ATCC10145
Method: as §1, §2, §3

[10] = test system: P. aeruginosa NRZ-00425 (VIM-1); test: MIC, broth microdilution (CLSI), CAMHB; conditions: monosubstance; Pa NRZ00425
Method: as §1, §2, §3

P. mirabilis ATCC 9240 = test: MIC, broth microdilution (CLSI), CAMHB; conditions: monosubstance; Pm ATCC9240
Method: as §1, §2, §3

[11] = test system: P. mirabilis NRZ-00185 (AmpC, type CMY-2); test: MIC, broth microdilution (CLSI), CAMHB; conditions: monosubstance; Pm NRZ00185
Method: as §1, §2, §3

E. coli ATCC 25922 [12] = test: Time-kill curves; conditions: E. coli ATCC25922; for growth- and kill rates k ('+' = growth, unmarked = kill rate): first four hours
E. coli NRZ-00401 = test: Time-kill curves; conditions: E. coli NRZ00401; for growth- and kill rates k ('+' = growth, unmarked = kill rate): first four hours
E. coli NRZ-00302 = test: Time-kill curves; conditions: E. coli NRZ00302; for growth- and kill rates k ('+' = growth, unmarked = kill rate): first four hours
E. coli GNS-2601 = test: Time-kill curves; conditions: E. coli GNS2601; for growth- and kill rates k ('+' = growth, unmarked = kill rate): first four hours
[13] = test system: E. coli NRZ-00302 (NDM-1 β-lactamase); conditions: checkerboard
Description: (§4) The checkerboard consists of columns in which each well contains the same amount of antibacterial A being over i dilutions along the x-axis, and in rows in which each well contains the same amount of antibacterial B over j dilutions on the y-axis, i.e. serial dilutions of antibacterials A and B, respectively, are titrated in a rectangular fashion.
(§5) The fractional inhibitory concentration (FIC) is a mathematical expression of the effect of the combination of two antibacterial agents A and B. The FICs were calculated as the MIC of antibacterial A and antibacterial B in combination divided by the MIC of antibacterial A or antibacterial B alone.
(§6) The FICs and FIC index, respectively, are calculated according to the following equations:
(§7) FIC(A)=MIC(A in the presence of B)/MIC(A alone)
(§8) FIC(B)=MIC(B in the presence of A)/MIC(B alone)
(§9) The checkerboard titrations were performed three times.

[14] = test system: K. pneumoniae NRZ-00535 (VIM-1 β-lactamase); conditions: checkerboard
Description: as §4, §5, §6, §7, §8, §9

[15] = test system: P. aeruginosa NRZ-00425 (VIM-2 β-lactamase); test: microbe, parasite or virus in culture; conditions: checkerboard
Description: as §4, §5, §6, §7, §8, §9

E. cloacae ATCC 13047 [16] = test: Checkerboard titration of Compound 1 and colistin; conditions: checkerboard
Description: as §4, §5, §6, §7, §8, §9

[17] = test system: E. cloacae NRZ-00239 (VIM-1 β-lactamase); test: Checkerboard titration of Compound 1 and colistin
Description: as §4, §5, §6, §7, §8, §9

E. coli ATCC 25922 [18] = test: Checkerboard titration of Compound 1 and colistin
Description: as §4, §5, §6, §7, §8, §9

[19] = test system: E. coli ATCC 25922, NRZ-00401, NRZ-00302 and GNS-2601; test: Time-kill curves, statements on the four E. coli strains; conditions: one- or two-times MIC; four E. coli strains

Substance: colistin
- MIC (E. cloacae ATCC 13047 [1]): 64 µg/mL
- MIC [2]: 0.5 µg/mL
- MIC (E. coli ATCC 25922 [3]): 1 µg/mL
- MIC [4]: 2 µg/mL
- MIC [5]: 1 µg/mL
- MIC [6]: 1 µg/mL
- MIC (K. pneumoniae ATCC 13883): 0.03 µg/mL
- MIC [7]: 0.25 µg/mL
- MIC [8]: 0.25 µg/mL
- MIC [9]: 0.25 µg/mL
- MIC (P. aeruginosa ATCC 10145): 0.5 µg/mL
- MIC [10]: 1 µg/mL
- MIC (P. mirabilis ATCC 9240): >256 µg/mL
- MIC [11]: >256 µg/mL
- growth- and kill rates k ('+' = growth, unmarked = kill rate) (E. coli ATCC 25922 [12]; single agent at 1x its MIC): 0.86 h⁻¹
- growth- and kill rates k ('+' = growth, unmarked = kill rate) (E. coli ATCC 25922 [12]; single agent at 2x its MIC): 1.04 h⁻¹
- Viable counts at 8 h of exposure (E. coli ATCC 25922 [12]; single agent at 1x its MIC): 0 log10 CFU/mL
- Viable counts at 8 h of exposure (E. coli ATCC 25922 [12]; single agent at 2x its MIC): 0 log10 CFU/mL
- growth- and kill rates k ('+' = growth, unmarked = kill rate) (E. coli NRZ-00401; single agent at 1x its MIC): 2.46 h⁻¹
- growth- and kill rates k ('+' = growth, unmarked = kill rate) (E. coli NRZ-00401; single agent at 2x its MIC): 2.53 h⁻¹
- Viable counts at 8 h of exposure (E. coli NRZ-00401; single agent at 1x its MIC): 0 log10 CFU/mL
- Viable counts at 8 h of exposure (E. coli NRZ-00401; single agent at 2x its MIC): 0 log10 CFU/mL
- growth- and kill rates k ('+' = growth, unmarked = kill rate) (E. coli NRZ-00302; single agent at 1x its MIC): 1.63 h⁻¹
- growth- and kill rates k ('+' = growth, unmarked = kill rate) (E. coli NRZ-00302; single agent at 2x its MIC): 1.89 h⁻¹
- Viable counts at 8 h of exposure (E. coli NRZ-00302; single agent at 1x its MIC): 1.95 log10 CFU/mL
- Viable counts at 8 h of exposure (E. coli NRZ-00302; single agent at 2x its MIC): 0 log10 CFU/mL
- growth- and kill rates k ('+' = growth, unmarked = kill rate) (E. coli GNS-2601; single agent at 1x its MIC): 1.55 h⁻¹
- growth- and kill rates k ('+' = growth, unmarked = kill rate) (E. coli GNS-2601; single agent at 2x its MIC): 1.80 h⁻¹
- Viable counts at 8 h of exposure (E. coli GNS-2601; single agent at 1x its MIC): 0 log10 CFU/mL
- Viable counts at 8 h of exposure (E. coli GNS-2601; single agent at 2x its MIC): 0 log10 CFU/mL
- MIC (agent alone) [13]: 0.5 to 1 µg/mL
- MIC (agent alone) [14]: 0.5 to 2 µg/mL
- MIC (agent alone) [15]: 2 µg/mL
- MIC (agent alone) (E. cloacae ATCC 13047 [16]): 256 µg/mL
- MIC (agent alone) [17]: 1 µg/mL
- MIC (agent alone) ([17]; listed as col): 0.5 to 1 µg/mL
- MIC (agent alone) (E. coli ATCC 25922 [18]): 1 to 2 µg/mL
- type of activity in time-kill [19]: bactericidal
